Experimental data published in patent US10760052B2, “Method of inhibiting tau phosphorylation” (priority 2012, dated 2020).
Where two headings read alike, the source gives them in different places.

Target: T1, mu opiate receptor (MOR) (Rattus norvegicus, UniProt P33535)
T1 construct: from tissue; host or cells: striatum (membrane preparation)
Assay type: biochemical
Settings: for Concentration of FLNA-Binding Compound as Agonist 0.1 μM / Concentration of FLNA-Binding Compound as Agonist 1 μM / Concentration of FLNA-Binding Compound as Agonist 1 μM + BFNA: [35S]GTPγS binding to Gαo in striatal membranes; for Concentration of FLNA-Binding Compound as Agonist 0.1 μM: compound 0.1 μM; for Concentration of FLNA-Binding Compound as Agonist 1 μM: compound 1 μM; for Concentration of FLNA-Binding Compound as Agonist 1 μM + BFNA: compound 1 μM plus 1 μM β-funaltrexamine (MOR antagonist)

[1] = 0.1 μM compound, striatal membranes, Series C-2
[2] = 1 μM compound + 1 μM β-FNA (selective MOR antagonist), Series C-2
[3] = 1 μM compound, striatal membranes, Series C-2

T1 sequence (P33535 whole entry): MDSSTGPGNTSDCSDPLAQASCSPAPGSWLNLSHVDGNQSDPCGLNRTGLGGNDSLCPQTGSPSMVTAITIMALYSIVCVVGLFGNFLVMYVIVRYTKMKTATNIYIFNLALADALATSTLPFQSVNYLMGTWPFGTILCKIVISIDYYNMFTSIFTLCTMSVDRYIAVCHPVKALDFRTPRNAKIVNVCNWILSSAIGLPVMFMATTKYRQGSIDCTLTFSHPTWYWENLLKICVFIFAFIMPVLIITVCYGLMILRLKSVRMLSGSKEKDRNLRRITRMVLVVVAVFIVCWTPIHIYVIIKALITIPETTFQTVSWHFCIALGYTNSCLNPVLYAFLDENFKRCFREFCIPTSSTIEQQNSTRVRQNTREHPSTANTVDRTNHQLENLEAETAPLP

SMILES	% DAMGO (0.1 μM) [%]	% DAMGO (1 μM) [%]	% DAMGO + BFNA [%]	Concentration of FLNA-Binding Compound as Agonist 0.1 μM [%]	Concentration of FLNA-Binding Compound as Agonist 1 μM [%]	Concentration of FLNA-Binding Compound as Agonist 1 μM + BFNA [%]	[35S]GTPγS binding, FLNA-Binding Compound as Agonist at 0.1 μM [%]	[35S]GTPγS binding, FLNA-Binding Compound as Agonist at 1 μM [%]	[35S]GTPγS binding, FLNA-Binding Compound as Agonist at 1 μM + BFNA [%]	[35S]GTPγS binding, FLNA-Binding Compound as Agonist at 0.1 μM [1] [%]	[35S]GTPγS binding, FLNA-Binding Compound as Agonist at 1 μM + BFNA [2] [%]	[35S]GTPγS binding, FLNA-Binding Compound as Agonist at 1 μM [3] [%]
O=C(c1ccc([N+](=O)[O-])cc1)N1CCC2(CC1)OCCN2S(=O)(=O)c1ccc([N+](=O)[O-])cc1 [Compound C0022]	113.5	123.2	25.7	194.3	328.7	13.4	–	–	–	–	–	–
CC1CN(CC(O)COC2CCCCC2)CC(C)O1 (stereo not drawn) [Compound A0017]	96.9	100.4	187.9	161.9	246.0	65.2	–	–	–	–	–	–
CC(=O)c1ccc(C(=O)N2CCOC23CCN(S(=O)(=O)c2ccc(C(C)=O)cc2)CC3)cc1 [Compound C0053]	71.7	67.5	211.6	104.0	157.2	93.1	–	–	–	–	–	–
COc1ccc(S(=O)(=O)N2CCOC23CCN(CC2CC2)CC3)cc1 [Compound C0090M]	137.7	155.2	118.8	–	–	–	237.0	341.0	41.0	–	–	–
COc1ccc(C(=O)N2CCC3(CC2)OCCN3S(=O)(=O)c2ccc(OC)cc2)cc1 [Compound C0018]	110.7	95.5	162.1	195.5	247.7	106.5	–	–	–	–	–	–
COc1ccc(CC(=O)CC2c3c(cc4c(c3OC)OCO4)CC[N+]2(C)C)c(OC)c1 (stereo not drawn) [Compound B0029]	89.4	77.0	40.1	171.9	210.3	17.6	–	–	–	–	–	–
COc1ccc(S(=O)(=O)N2CCC3(CC2)OCCN3S(=O)(=O)c2ccc(OC)cc2)cc1 [Compound 7866]	79.3	94.8	129.5	152.3	308.2	62.4	–	–	–	–	–	–
CC1CCC(C(C)C)C(OCC(CN2CC(C)OC(C)C2)NCc2ccccc2)C1 (stereo not drawn) [Compound A0033]	79.4	92.2	159.9	155.8	254.6	118.2	–	–	–	–	–	–
COc1cc(CC(=O)CC2c3c(cc4c(c3OC)OCO4)CC[N+]2(C)C)cc(OC)c1OC (stereo not drawn) [Compound B0008]	84.0	101.9	70.0	148.3	264.1	46.0	–	–	–	–	–	–
COc1c2c(cc3c1C(CC(=O)CCc1ccc(Cl)cc1)[N+](C)(C)CC3)OCO2 (stereo not drawn) [Compound B0017]	58.9	45.6	75.2	99.6	122.0	49.6	–	–	–	–	–	–
CC1CCC(C(C)C)C(OCC(O)CN2CCCCCCC2)C1 (stereo not drawn) [Compound A0014]	83.2	67.5	214.3	147.0	174.9	140.8	–	–	–	–	–	–
COc1c2c(cc3c1C(CC(=O)Cc1ccccc1C)N(C)CC3)OCO2 (stereo not drawn) [Compound B0053]	94.8	137.0	809.0	160.2	299.8	134.3	–	–	–	–	–	–
CCc1ccc(S(=O)(=O)N2CCOC23CCN(CC2CC2)CC3)cc1 [Compound C0135M]	85.3	124.9	233.6	–	–	–	161.3	310.1	113.3	–	–	–
O=[N+]([O-])c1ccc(S(=O)(=O)N2CCC3(CC2)NCCO3)cc1 [Compound C0040]	93.1	133.2	277.3	–	–	–	–	–	–	145.8	90.4	308.3
CC(=O)c1ccc(S(=O)(=O)N2CCOC23CCN(CC2CC2)CC3)cc1 [Compound C0095M]	107.4	88.8	489.5	–	–	–	–	–	–	189.1	107.7	224.6
CC1CN(CC(O)COc2ccc(Br)c(Cl)c2)CC(C)O1 (stereo not drawn) [Compound A0045]	73.3	99.3	134.2	143.9	274.2	99.2	–	–	–	–	–	–
C=CCN1CCC2(CC1)OCCN2S(=O)(=O)c1ccc(OC)cc1 [Compound C0091M]	118.1	108.5	367.3	–	–	–	–	–	–	207.9	80.8	274.4
CN1CCC2(CC1)OCCN2S(=O)(=O)c1ccc(S(C)(=O)=O)cc1 [Compound C0106M]	102.5	108.3	246.7	–	–	–	–	–	–	171.8	117.2	240.7
COc1ccc(S(=O)(=O)N2CCOC23CCN(C(=O)OC(C)(C)C)CC3)cc1 [Compound C0043]	103.8	110.9	501.8	–	–	–	–	–	–	175.4	83.3	242.6
COc1ccc(NC(=O)N2CCC3(CC2)OCCN3S(=O)(=O)c2ccc(OC)cc2)cc1 [Compound C0041]	110.1	111.7	575.3	186.1	244.4	95.5	–	–	–	–	–	–
CC1CCC(C(C)C)C(OCC(O)CN2CCCc3ccccc32)C1 (stereo not drawn) [Compound A0068]	36.8	35.2	182.0	73.9	110.4	98.1	–	–	–	–	–	–
COc1c2c(cc3c1C(CC(=O)CCc1ccc(O)cc1)[N+](C)(C)CC3)OCO2 (stereo not drawn) [Compound B0028]	103.5	131.0	125.3	199.1	357.7	55.0	–	–	–	–	–	–
